Results: the supplement of paper PMC4862054

Tests used:
Settings in all cases: incubation time: 72 h
[1] = test system: CAL-51; assay: normalised response (% of control), CellTiter-Glo; higher = more viable cells (100 = DMSO, 0 = benzethonium chloride kill control)
Procedure: (§1)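 DSRT, 72 h incubation, CellTox Green / CellTiter-Glo readout. Signal is normalised to DMSO and benzethonium chloride controls. Value is the normalised response at dose 3.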

[2] = test system: BT-549; assay: as above
Procedure: as §1

[3] = test system: BT-474; assay: as above
Procedure: as §1

[4] = test system: HCC1599; assay: as above
Procedure: as §1

[5] = test system: DU-4475; assay: as above
Procedure: as §1

[6] = test system: SK-BR-3; assay: as above
Procedure: as §1

[7] = test system: MFM-223; assay: as above
Procedure: as §1

[8] = test system: MCF-10A; assay: as above
Procedure: as §1

[9] = test system: CAL-148; assay: as above
Procedure: as §1

[10] = test system: CAL-85-1; assay: as above
Procedure: as §1

[11] = test system: Hs578T; assay: as above
Procedure: as §1

[12] = test system: MDA-MB-453; assay: as above
Procedure: as §1

[13] = test system: MDA-MB-468; assay: as above
Procedure: as §1

[14] = test system: MDA-MB-436; assay: as above
Procedure: as §1

[15] = test system: HDQ-P1; assay: as above
Procedure: as §1

[16] = test system: CAL-120; assay: as above
Procedure: as §1

[17] = test system: HCC1937; assay: as above
Procedure: as §1

[18] = test system: HCC1143; assay: as above
Procedure: as §1

[19] = test system: MDA-MB-231; assay: as above
Procedure: as §1

[20] = test system: CAL-51; assay: normalised response (% of control), CellTox Green; higher = less cell death (100 = DMSO, 0 = benzethonium chloride kill control)
In short: (§2)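 After 72 h with compound in 384-well plates, breast cancer cell lines seeded as 20 µl suspension were read for CellTox Green fluorescence at 485/520 nm. CellTiter-Glo luminescence was then read after 10 min at room temperature. Compound was present at 5 concentrations in 10-fold steps over a 10,000-fold range set per compound, and plates were normalised to 0.1 % DMSO (100) and a positive kill control (0). Values are normalised signals, each at a single concentration.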

[21] = test system: BT-549; assay: as above
In short: as §2

[22] = test system: BT-474; assay: as above
In short: as §2

[23] = test system: HCC1599; assay: as above
In short: as §2

[24] = test system: DU-4475; assay: as above
In short: as §2

[25] = test system: MFM-223; assay: as above
In short: as §2

[26] = test system: MCF-10A; assay: as above
In short: as §2

[27] = test system: CAL-148; assay: as above
In short: as §2

[28] = test system: CAL-85-1; assay: as above
In short: as §2

[29] = test system: MDA-MB-453; assay: as above
In short: as §2

[30] = test system: MDA-MB-468; assay: as above
In short: as §2

[31] = test system: MDA-MB-436; assay: as above
In short: as §2

[32] = test system: HDQ-P1; assay: as above
In short: as §2

[33] = test system: CAL-120; assay: as above
In short: as §2

[34] = test system: HCC1937; assay: as above
In short: as §2

[35] = test system: HCC1143; assay: as above
In short: as §2

[36] = test system: MDA-MB-231; assay: as above
In short: as §2

[37] = test system: Hs578T; assay: as above
In short: as §2

Row | Compound | normalised response [1] | normalised response [2] | normalised response [3] | normalised response [4] | normalised response [5] | normalised response [6] | normalised response [7] | normalised response [8] | normalised response [9] | normalised response [10] | normalised response [11] | normalised response [12] | normalised response [13] | normalised response [14] | normalised response [15] | normalised response [16] | normalised response [17] | normalised response [18] | normalised response [19] | normalised response [20] | normalised response [21] | normalised response [22] | normalised response [23] | normalised response [24] | normalised response [25] | normalised response [26] | normalised response [27] | normalised response [28] | normalised response [29] | normalised response [30] | normalised response [31] | normalised response [32] | normalised response [33] | normalised response [34] | normalised response [35] | normalised response [36] | normalised response [37]
1 | COc1cc([C@@H]2c3cc4c(cc3[C@@H](O[C@@H]3O[C@@H]5CO[C@@H](C)O[C@H]5[C@H](O)[C@H]3O)[C@H]3COC(=O)[C@H]23)OCO4)cc(OC)c1O [Etoposide] (100 nM) | 107% | 94.6% | 99.9% | 110% | 82.9% | 109% | 110% | 106% | 103% | 102% | 111% | 113% | 100% | 98.3% | 102% | 102% | 94.9% | 100% | 120% | 112% | 92.4% | 101% | 110% | 98.8% | 104% | 75% | 92% | 95.2% | 102% | 56.9% | 107% | 92% | 106% | 111% | 98.7% | 112% | 
2 | NC(=O)Nc1cc(-c2cccc(F)c2)sc1C(=O)N[C@H]1CCCNC1 [AZD7762] (10 nM) | 106% | 101% | 105% | 91.3% | 102% | 103% | 103% | 99.5% | 106% | 97.5% | 94.5% | 81.9% | 102% | 104% | 94% | 106% | 95% | 110% | 104% | 113% | 96.5% | 101% | 116% | 99.5% | 104% | 102% | 96% | 100% | 105% | 104% | 91% | 108% | 99.8% | 107% | 105% | 104% | 
3 | Clc1ccc(Nc2nnc(Cc3ccncc3)c3ccccc23)cc1 [Vatalanib] (100 nM) | 89.3% | 109% | 103% | 109% | 105% | 102% | 107% | 111% | 112% | 103% | 106% | 106% | 108% | 111% | 101% | 99.1% | 103% | 106% | 105% | 110% | 105% | 99.6% | 106% | 101% | 103% | 103% | 107% | 77.6% | 64% |  |  | 109% | 102% | 115% | 117% | 102% | 111%
4 | N.N.[Cl][Pt][Cl] [Cisplatin] (10 nM) | 90.6% | 107% | 102% | 104% | 96.6% | 93.5% | 99.8% | 106% | 82.8% | 94.7% | 96.4% | 90.5% | 85.3% | 103% | 101% | 108% | 97.7% | 103% | 103% | 94.8% | 115% | 104% | 102% | 114% | 105% | 115% | 103% | 112% | 106% |  |  | 109% | 108% | 90.6% | 109% | 114% | 78.4%
5 | Cc1ccc(C(=O)Nc2ccc(CN3CCN(C)CC3)c(C(F)(F)F)c2)cc1C#Cc1cnc2cccnn12 [Ponatinib] (10 nM) | 106% | 104% | 105% | 89.4% | 101% | 106% | 88.4% | 111% | 106% | 99.5% | 99.1% | 105% | 106% | 109% | 105% | 106% | 94.3% | 99.5% | 99.6% | 99.5% | 94.4% | 100% | 101% | 101% | 77.6% | 99.1% | 95.3% | 103% | 105% | 93.2% | 73.4% |  | 102% |  | 69.8% |  | 
6 | CNCc1ccc(-c2[nH]c3cc(F)cc4c3c2CCNC4=O)cc1 [Rucaparib] (100 nM) | 84.1% | 106% | 93% | 109% | 97.2% | 90% | 88.8% | 93.6% | 86% | 99.1% | 99.8% | 91.3% | 104% | 90.6% | 98.3% | 92.8% | 99.2% | 99.3% | 99.2% | 91.6% | 71.6% | 95.5% | 94.4% | 95.7% | 73.3% |  | 97.4% | 97.5% | 102% |  | 83.3% | 104% | 98.9% |  | 104% | 87% | 108%
7 | Cc1ccc(C(=O)N(CCCN)[C@@H](c2oc3cc(Cl)ccc3c(=O)c2Cc2ccccc2)C(C)C)cc1 (1 nM) | 65.8% | 101% | 95% | 104% | 96.6% | 88.2% | 91.4% | 97% | 84.9% | 107% | 94.8% | 91.4% | 93.9% | 105% | 105% | 102% | 94.3% | 103% | 103% | 74.1% | 93.7% | 101% | 88.1% | 103% | 100% | 107% | 93.5% | 113% | 104% |  | 108% | 100% | 83.7% | 97% |  | 102% | 104%
8 | CC(C)Cn1cnc2c(N)nc3ccccc3c21 [Imiquimod] (25 nM) | 81.8% | 103% | 104% | 101% | 107% | 106% | 107% | 103% | 110% | 99.9% | 107% | 97.4% | 104% | 104% | 101% | 101% | 94.8% | 107% | 102% | 90.4% | 87.2% | 102% | 103% | 102% | 105% | 91.9% |  | 98.1% | 61.1% |  | 101% | 74.9% | 96.9% | 102% | 81.4% | 100% | 51.6%
9 | COc1cc2ncnc(Nc3ccc(F)c(Cl)c3)c2cc1NC(=O)/C=C/CN1CCCCC1 [Dacomitinib] (10 nM) | 91% | 105% | 100% | 99.7% | 104% | 77.3% | 103% | 56.4% | 103% | 84.2% | 108% | 96% | 78.8% | 100% | 77% | 100% | 98.1% | 102% | 106% | 105% | 102% | 98.8% | 88.8% | 104% | 100% | 108% | 101% | 90.5% | 98% | 68.7% | 103% | 50% | 105% |  | 80% | 103% | 
